Measured values reported in article PMC4850295, “Using a Genetically Encoded Sensor to Identify Inhibitors of Toxoplasma gondii Ca^2+ Signaling” (The Journal of Biological Chemistry, 2016).

molecular target: T1, recombinant T. gondii PKG (cGMP-dependent protein kinase; protein kinase G) (Toxoplasma gondii, UniProt Q8MMZ7); test: in vitro kinase assay (CycLex PKG assay kit); format: biochemical; conditions: 6.76 nM recombinant PKG
T1 sequence (Q8MMZ7 whole entry): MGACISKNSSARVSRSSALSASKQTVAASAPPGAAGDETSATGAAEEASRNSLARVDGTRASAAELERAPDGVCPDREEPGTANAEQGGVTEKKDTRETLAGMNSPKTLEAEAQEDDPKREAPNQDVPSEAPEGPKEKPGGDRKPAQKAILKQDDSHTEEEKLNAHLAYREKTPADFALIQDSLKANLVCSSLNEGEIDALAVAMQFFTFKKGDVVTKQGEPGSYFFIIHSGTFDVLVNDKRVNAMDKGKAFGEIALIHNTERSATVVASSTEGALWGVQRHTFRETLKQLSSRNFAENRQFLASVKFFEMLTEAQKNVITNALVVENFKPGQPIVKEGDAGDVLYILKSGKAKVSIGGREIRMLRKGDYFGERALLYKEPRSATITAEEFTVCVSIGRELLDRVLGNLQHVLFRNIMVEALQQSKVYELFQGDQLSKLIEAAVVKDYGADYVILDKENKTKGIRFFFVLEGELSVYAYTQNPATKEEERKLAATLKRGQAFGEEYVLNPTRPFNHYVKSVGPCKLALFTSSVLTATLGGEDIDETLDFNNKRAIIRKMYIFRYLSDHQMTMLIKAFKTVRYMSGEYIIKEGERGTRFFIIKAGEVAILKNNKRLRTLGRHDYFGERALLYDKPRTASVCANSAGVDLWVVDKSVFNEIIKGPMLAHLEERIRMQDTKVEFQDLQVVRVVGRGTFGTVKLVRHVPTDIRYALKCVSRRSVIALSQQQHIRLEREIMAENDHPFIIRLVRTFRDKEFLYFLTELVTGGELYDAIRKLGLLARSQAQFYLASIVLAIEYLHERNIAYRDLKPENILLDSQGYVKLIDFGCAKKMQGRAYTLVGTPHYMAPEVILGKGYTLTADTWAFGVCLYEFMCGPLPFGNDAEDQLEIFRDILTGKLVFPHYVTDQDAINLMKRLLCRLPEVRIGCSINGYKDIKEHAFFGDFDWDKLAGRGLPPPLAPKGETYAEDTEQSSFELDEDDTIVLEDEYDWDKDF

Row | SMILES | activity versus inhibitor concentration
1 | CN(C)Cc1ccn2c(-c3ccnc(N)n3)c(-c3ccc(F)cc3)nc2c1 [Cpd2, Compound 2] | presence of increasing concentrations of Inh1, Inh2, or the PKG inhibitor Cpd2

molecular target: T1, recombinant T. gondii PKG (cGMP-dependent protein kinase; protein kinase G); test: in vitro kinase assay (CycLex PKG assay kit); format: biochemical; conditions: not given

Row | SMILES | IC50 [nM]
2 | Fc1ccc(-c2nn3ncccc3c2-c2ccnc(Nc3ccc4c(c3)OCCO4)n2)cc1 [Inh1] | 580
3 | Nc1nc(-c2ccc3c(c2)C(=Cc2cc(Br)c(O)c(Br)c2)C(=O)N3)cs1 [Inh2] | 670

system: T2, GCaMP5-expressing T. gondii; test: not given; parameters: species or system GCaMP5-expressing Toxoplasma gondii, extracellular; GCaMP5 fluorescence (cytosolic Ca2+) after 100 uM zaprinast in compound-pretreated extracellular parasites, background-subtracted, relative to zaprinast alone; conditions: 100 uM zaprinast stimulation, 10 min pretreatment, mean of two replicates, 0.23 h, 10 µM
T2 construct: whole extracellular parasites expressing GCaMP5 Ca2+ sensor
Procedure, shortened: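 Read-out is GCaMP5 calcium fluorescence (ex 485/em 525 nm) taken 4 min after 100 μM zaprinast at 37 °C, following 10 min compound pretreatment at 10 μM in duplicate biological replicates. Values are basal-subtracted fold change versus zaprinast-only controls; parasites held extracellular in Ringer's solution.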

Row | SMILES | fold change in fluorescence relative to zaprinast alone
4 | Fc1ccc(-c2nc3n(c2-c2ccncc2)CCS3)cc1 [SKF-86002] | 1.092

same assay, conditions: 100 uM zaprinast stimulation; 10 min pretreatment; mean of two replicates; 0.23 h

Row | SMILES | fold change in fluorescence relative to zaprinast alone
5 | Fc1ccc(-c2nn3ncccc3c2-c2ccnc(Nc3ccc4c(c3)OCCO4)n2)cc1 [Inh1] | -0.1251
6 | Nc1nc(-c2ccc3c(c2)C(=Cc2cc(Br)c(O)c(Br)c2)C(=O)N3)cs1 [Inh2] | 0.1475
7 | O=C(Nc1n[nH]c2nc(-c3cccc(O)c3)ccc12)C1CC1 [SB-711805] | 0.905
8 | O=C(Nc1n[nH]c2nc(-c3ccccc3O)ccc12)C1CC1 [SB-711880] | 1.267
9 | O=C(Nc1n[nH]c2nc(-c3ccc(O)cc3)c(Br)cc12)C1CC1 [SB-725317] | 1.144
10 | Nc1ncnc2scc(-c3ccc(NC(=O)Cc4cc(F)ccc4F)cc3)c12 [SB-731254-M] | 1.242
11 | O=C(Nc1n[nH]c2cc(-c3cccs3)ccc12)C1CC1 [SB-731284] | 1.194
12 | CCN1CCN(CCCC(=O)Nc2n[nH]c3nc(-c4ccc(O)cc4)c(Br)cc23)CC1 [SB-731579] | 1.047
13 | O=C(Nc1n[nH]c2cc(-c3ccsc3)ccc12)C1CC1 [SB-732932] | 1.052
14 | O=C(Nc1n[nH]c2cc(-c3ccccc3)ccc12)C1CC1 [SB-732941] | 1.147
15 | O=C(Nc1n[nH]c2cc(-c3ccccc3F)ccc12)C1CC1 [SB-733371] | 0.8641
16 | CCn1c(-c2ccccc2)nc2cnccc21 [SB-733416] | 1.146
17 | CCn1c(-c2ccoc2)nc2cnccc21 [SB-733887] | 1.127
18 | O=C(Nc1n[nH]c2cc(-c3cccc(F)c3F)ccc12)C1CC1 [SB-733894] | 1.167
19 | Nc1nonc1-c1nc2cnccc2n1C1CCCCC1 [SB-734117] | 1.214
20 | O=C(Nc1n[nH]c2nc(-c3ccccc3)c(Cl)cc12)C1CC1 [SB-734909] | 1.154
21 | CCn1c(-c2ccncc2)nc2cnccc21 [SB-735216] | 1.246
22 | O=C(Nc1n[nH]c2nc(-c3cccs3)c(Br)cc12)C1CC1 [SB-735297] | 1.322
23 | O=C(Nc1n[nH]c2cc(-c3cccc(F)c3)ccc12)C1CC1 [SB-735464] | 1.069
24 | O=C(Nc1n[nH]c2cc(-c3cc(F)ccc3F)ccc12)C1CC1 [SB-735465] | 1.125
25 | O=C(Nc1n[nH]c2cc(-c3ccc(F)cc3)ccc12)C1CC1 [SB-735467] | 0.9628
26 | Cn1c(-c2nonc2N)nc2cnccc21 [SB-736290] | 1.181
27 | Nc1nonc1-c1nc2cnccc2n1C1CC1 [SB-736302] | 1.282

Row | SMILES | fold change in fluorescence relative to zaprinast alone
28 | CCn1c(-c2ccccn2)nc2cnccc21 [SB-736398] | 1.076
29 | CCn1c(-c2ccc[nH]c2=O)nc2cnccc21 [SB-736715] | 0.9368
30 | CCOc1nccc2c1nc(-c1nonc1N)n2CC [SB-737198] | 0.8453
31 | O=C(Nc1n[nH]c2cc(-c3ccco3)ccc12)C1CC1 [SB-737447] | 1.13
32 | CCn1c(-c2c(N)noc2C)nc2cnccc21 [SB-737856] | 0.9935
33 | CCn1c(-c2nonc2N)nc2cncc(Br)c21 [SB-738004] | 0.8309
34 | O=C(Nc1n[nH]c2cc(-c3ccoc3)ccc12)C1CC1 [SB-738481] | 1.2
35 | NS(=O)(=O)c1ccc(-c2ccc3c(NC(=O)C4CC4)n[nH]c3c2)cc1 [SB-738482] | 1.098
36 | CCn1c(-c2nonc2N)nc2ccncc21 [SB-738561] | 1.114
37 | O=C(Nc1n[nH]c2nc(-c3ccco3)c(Br)cc12)C1CC1 [SB-739452] | 1.083
38 | NS(=O)(=O)c1cccc(-c2ccc3c(NC(=O)C4CC4)n[nH]c3c2)c1 [SB-741905] | 1.374
39 | O=C(Nc1n[nH]c2nc(-c3ccco3)c(Br)cc12)C1CCN(Cc2ccccc2)C1 (stereo not shown) [SB-742034-AC] | 0.9039
40 | O=C(Nc1n[nH]c2nc(-c3nccs3)c(Br)cc12)C1CC1 [SB-742251] | 1.325
41 | O=C(Nc1n[nH]c2nc(-c3nccs3)c(Br)cc12)C1CCCC1 [SB-742609] | 1.102
42 | O=C(Nc1n[nH]c2nc(-c3cccs3)c(Br)cc12)C1CCCC1 [SB-743341] | 0.9376
43 | O=C(Nc1n[nH]c2nc(-c3ccco3)ccc12)C1CC1 [SB-743899] | 1.211
44 | CCn1c(-c2nonc2N)nc2c(N3CCCC3)nccc21 [SB-744941] | 0.961
45 | CCn1c(-c2nonc2N)nc2cncc(CNC3CCNCC3)c21 [SB-747651-A] | 1.501
46 | NCc1ccc(-n2c(-c3nonc3N)nc3cnccc32)cc1 [SB-750140] | 1.416
47 | Cn1nc(-c2ccc(NC(=O)Nc3ccc4ccccc4c3)c(F)c2)c2cnc(NCCN3CCOCC3)nc21 [SB-750250-M] | 1.757
48 | CCc1nccc2c1nc(-c1nonc1N)n2CC [SB-751148] | 1.115
49 | CN(C)CCCn1c(-c2nonc2N)nc2cnccc21 [SB-751399] | 1.355
50 | CCn1c(-c2nonc2N)nc2cncc(C(=O)N3CCNCC3)c21 [SB-759335-B] | 1.333

Row | SMILES | fold change in fluorescence relative to zaprinast alone
51 | CCn1c(-c2nonc2N)nc2cncc(C(=O)N3CC[C@H](N)C3)c21 [SB-772077-B] | 1.135
52 | Nc1nc(N)c2[nH]c(-c3ccccc3)nc2n1 [SKF-12778] | 1.022
53 | Cn1ncc2c(N)ncnc21 [SKF-18267] | 0.9633
54 | CNc1ncnc2[nH]ncc12 [SKF-18355] | 1.025
55 | CN(C)c1ncnc2nc[nH]c12 [SKF-31736] | 1.087
56 | Fc1ccc(-c2c(-c3ccncc3)nc3n2CCS3)cc1 [SKF-86055] | 1.285
57 | CCn1cnc2c(NCc3ccccc3)ncnc21 [SKF-96418] | 0.8238
58 | Nc1ncnc2c1ncn2-c1cccc2ccccc12 [SKF-97184] | 0.9854
59 | COc1ccc(-n2cnc3c(N)ncnc32)cc1 [SKF-97236] | 1.027
60 | CCCCCc1nc2c(N)ncnc2n1CCCCC [SKF-97255] | 0.8987
61 | CC(C)(C)c1ccc(-n2cnc3c(N)ncnc32)cc1 [SKF-97263] | 1.008
62 | Nc1ncnc2c1nc(-c1ccccc1)n2-c1ccccc1 [SKF-97293] | 1.205
63 | CC(C)(C)n1cnc2c(N)ncnc21 [SKF-97359] | 1.052
64 | COc1cccc(-n2cnc3c(N)ncnc32)c1 [SKF-97416] | 1.043
65 | Cc1ccccc1-n1cnc2c(N)ncnc21 [SKF-97510] | 1.09
66 | Nc1ncnc2c1ncn2-c1cccc(F)c1 [SKF-97560] | 1.042
67 | CCC(CC)(CC)n1cnc2c(N)ncnc21 [SKF-97620] | 0.9821
68 | Cn1cnc2c(N)ncnc21 [SKF-97623] | 1.06
69 | Fc1ccc(-c2c(-c3ccccn3)nc3n2CCS3)cc1 [SKF-104365] | 0.9062
70 | COc1ccc(-c2nc3n(c2-c2ccncc2)CCC3)cc1 [SKF-104493-B2] | 0.9045
71 | CSc1ccc(-c2nc3n(c2-c2ccncc2)CCC3)cc1 [SKF-105561] | 0.9692
72 | CS(=O)(=O)c1ccc(-c2nc3n(c2-c2ccncc2)CCC3)cc1 [SKF-105942] | 0.9941
73 | CCSc1ccc(-c2nc3n(c2-c2ccncc2)CCC3)cc1 [SKF-106164-A2] | 1.019
